Key:
Assay type in all cases: physicochemical
[1] = Amorphous pemetrexed disodium stability study (HPLC purity, moisture content, XRD on storage); set-up: key to HPLC: % chromatographic purity by HPLC area normalisation; details: for HPLC: in % (unit assumed)
Protocol: (§1) X-ray diffraction data were acquired using a PANalyticalX′pert PRO X-ray diffractometer model.
(§2) System description: Kα1=1.54060 A^0, voltage 45 kV, current 40 mA, Xray source: Cu.
(§3) Experiment parameters: pattern measured between 2θ=4° and 2θ=40° with 0.05° increments; count time was 0.5 second per increment.
(§4) The water content measurements were carried out using a METTLER TOLEDO Model: DL31Karl Fischer Titrator according to standard procedures.
(§5) Purity by HPLC was performed by Waters 2690 Seperations module.system.
The samples were packed in double seal poly bags followed by Aluminium bag sealed under nitrogen with oxygen trapper and stored • at 2-8° C. for a period of six months • 25° C./60% relative humidity (RH) for a period of six months.
The purity of the sample was checked by HPLC and XRD was recorded for the samples stored under these conditions after 2 months and 6 months.
Inject 20 μl of test solution and calculate the chromatographic purity by area normalisation method.

[2] = Bulk and tapped density (tap density tester, USP)
Description: As referred to herein the term “bulk density” is the weight of the sample divided by its non packed volume and the term “tapped density” is the weight of the sample divided by its packed volume. The units of bulk density are grams (gm) per cubic centimeter (cc) or grams (gm) per milliliter (ml). A powder having low bulk density will be lightweight, fluffy and have greater surface area. A powder with high density will be much more compact and dense, exist as harder particles and will result in a more flowable product compared to powder with low bulk density. Bulk and tapped densities were measured using Electrolab ETD-1020 tap density tester (USP).

[3] = Material kept outside at room temperature for 15 hrs (XRD, water content, HPLC purity); details: after room temperature
Protocol: as §1, §4, §5
The material was kept outside at room temperature for 15 hrs.

[4] = Conservation of amorphous form under various storage conditions (XRD, moisture content)
Protocol: as §1, §2, §3, §4

[5] = 2-8° C. or 25° C./60% relative humidity, six months
[6] = 40° C./75% relative humidity for 7 days, double polythene bags in a fiber drum
[7] = 80° C. for 7 days, open petriplate
[8] = Room temperature for 24 hours, open petriplate
[9] = Room temperature for 40 days, double polythene bags

| SMILES | % Moisture Content ([1]; 2-8° C., 2 Months) [%] | % Moisture Content ([1]; 2-8° C., 6 Months) [%] | XRD ([1]; 2-8° C., 6 Months) | HPLC ([1]; 2-8° C., 6 Months) | % Moisture Content ([1]; 2-8° C., Initial) [%] | HPLC ([1]; 2-8° C., Initial) | % Moisture Content ([1]; 25° C. RH 60%, 2 Months) [%] | % Moisture Content ([1]; 25° C. RH 60%, 6 Months) [%] | HPLC ([1]; 25° C. RH 60%, 6 Months) | % Moisture Content ([1]; 25° C. RH 60%, Initial) [%] | HPLC ([1]; 25° C. RH 60%, Initial) | further results |
| --- | --- | --- | --- | --- | --- | --- | --- | --- | --- | --- | --- | --- |
| Nc1nc2[nH]cc(CCc3ccc(C(=O)NC(CCC(=O)[O-])C(=O)[O-])cc3)c2c(=O)[nH]1.[Na+].[Na+] (stereo not shown) [Amorphous Form of Pemetrexed Disodium, with Moisture Content] [listing 1 of 2 here] | 8.96 | 9.39 | Amorphous | 99.62 | 9.04 | 99.68 | 8.39 | 8.85 | 99.67 | 9.04 | 99.68 | HPLC ([1]; 2-8° C., 2 Months): 99.72; XRD ([1]; 2-8° C., Initial): Amorphous; HPLC ([1]; 25° C. RH 60%, 2 Months): 99.72; XRD ([1]; 25° C. RH 60%, 6 Months): Amorphous; XRD ([1]; 25° C. RH 60%, Initial): Amorphous |
| Nc1nc2[nH]cc(CCc3ccc(C(=O)NC(CCC(=O)[O-])C(=O)[O-])cc3)c2c(=O)[nH]1.[Na+].[Na+] (stereo not shown) [Amorphous Form of Pemetrexed Disodium, with Moisture Content] [listing 2 of 2 here] | 11.68 | 12.31 | Amorphous | 99.59 | 15.92 | 99.66 | 10.26 | 11.45 | 99.63 | 15.92 | 99.66 |  |
| Nc1nc2[nH]cc(CCc3ccc(C(=O)NC(CCC(=O)[O-])C(=O)[O-])cc3)c2c(=O)[nH]1.[Na+].[Na+] (stereo not shown) [Example 2, amorphous pemetrexed disodium] |  |  |  |  |  |  |  |  |  |  |  | Bulk density [2]: 0.226 gm/ml; Tapped density [2]: 0.369 gm/ml |
| Nc1nc2[nH]cc(CCc3ccc(C(=O)NC(CCC(=O)[O-])C(=O)[O-])cc3)c2c(=O)[nH]1.[Na+].[Na+] (stereo not shown) [Example 3, amorphous pemetrexed disodium] |  |  |  |  |  |  |  |  |  |  |  | HPLC purity [3]: 99.66%; Water content [3]: 16%; X-ray diffraction (form) [3]: amorphous form is retained |
| Nc1nc2[nH]cc(CCc3ccc(C(=O)NC(CCC(=O)[O-])C(=O)[O-])cc3)c2c(=O)[nH]1.[Na+].[Na+] (stereo not shown) [amorphous form of pemetrexed disodium, pemetrexed disodium] |  |  |  |  |  |  |  |  |  |  |  | amorphous form after storage (XRD) [1, 5]: amorphous form is retained; impurity formation / chemical purity after storage (HPLC) [1, 5]: no significant formation of impurities; % Moisture Content after storage [4, 6]: 18.27%; XRD [4, 6]: Amorphous form; % Moisture Content after storage [4, 7]: 6.24%; XRD [4, 7]: Amorphous form; % Moisture Content after storage [4, 8]: 20.03%; XRD [4, 8]: Amorphous form; % Moisture Content after storage [4, 9]: 18.56; XRD [4, 9]: Amorphous form; % Moisture Content Initial ([4]; before storage): 5.48% |
